This is an account of results in patent publication US10336762B2 (priority 2017, dated 2019).

In one assay the test system is TNFα. Briefly: cells. The class given is cell-based, human. Particulars: Homo sapiens, Monocyte, LPS-stimulated human monocytes, TNFα content; read-out: EC50 TNF.
Another assay concerns the target IRAK4 enzyme (Homo sapiens (Human), UniProt Q9NWZ3). In words: biochemical. It counts as biochemical. Conditions: IRAK4 enzyme, TR-FRET (HTRF), 500 μM ATP.

The structures appear in SMILES notation. pEC50, pIC50: −log10 of the molar value.

Chain of IRAK4 enzyme (Q9NWZ3 whole entry): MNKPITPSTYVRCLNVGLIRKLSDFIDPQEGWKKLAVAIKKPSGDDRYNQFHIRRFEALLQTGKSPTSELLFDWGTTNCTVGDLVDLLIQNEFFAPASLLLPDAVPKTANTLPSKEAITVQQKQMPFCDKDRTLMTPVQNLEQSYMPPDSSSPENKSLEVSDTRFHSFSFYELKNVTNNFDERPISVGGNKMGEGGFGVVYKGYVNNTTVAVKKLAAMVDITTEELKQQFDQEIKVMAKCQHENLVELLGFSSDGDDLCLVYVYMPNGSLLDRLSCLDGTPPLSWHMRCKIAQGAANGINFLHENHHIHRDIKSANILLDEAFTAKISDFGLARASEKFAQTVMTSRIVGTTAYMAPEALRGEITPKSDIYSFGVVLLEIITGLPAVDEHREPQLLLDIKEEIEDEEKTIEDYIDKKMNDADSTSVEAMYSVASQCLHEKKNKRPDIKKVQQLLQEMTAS

Regarding `CNC(=O)c1cnc(-c2ccc3cc(C#N)cnn23)cc1NC12CCC(NC(=O)OC)(CC1)CC2` [Example 486, methyl (4-((2-(3-cyano-pyrrolo[1,2-b]pyridazin-7-yl)-5-(methylcarbamoyl)pyridin-4-yl)amino)bicyclo[2.2.2]octan-1-yl)carbamate], the pEC50 with TNFα is 7.19. For the same compound, the negative-log IC50 (pIC50) against IRAK4 enzyme is 9.00.
As for `COC(=O)NC12CC(Nc3cc(-c4ccc5cc(C#N)cnn45)ncc3C(=O)NCC#N)(C1)C2` [Example 487, methyl (3-((5-((cyanomethyl)carbamoyl)-2-(3-cyanopyrrolo[1,2-b]pyridazin-7-yl)pyridin-4-yl)amino)bicyclo[1.1.1]pentan-1-yl)carbamate], the pEC50 with TNFα was 7.29. Further, the pIC50 against IRAK4 enzyme was > 9.00.
On the same counts, the results for `CNC(=O)c1cnc(-c2ccc3cc(C#N)cnn23)cc1NC12CC(NC(=O)OC)(C1)C2` [Example 488, methyl (3-((2-(3-cyano-pyrrolo[1,2-b]pyridazin-7-yl)-5-(methylcarbamoyl)pyridin-4-yl)amino)bicyclo[1.1.1]pentan-1-yl)carbamate] are 7.15 and 9.00.
`CNC(=O)c1cnc(-c2ccc3cc(C#N)cnn23)cc1NC12CC(C1)C2` [Example 489, 4-(bicyclo[1.1.1]pentan-1-ylamino)-6-(3-cyano-pyrrolo[1,2-b]pyridazin-7-yl)-N-methylnicotinamide]: the pEC50 with TNFα was 6.92. This compound also gave a pIC50 at IRAK4 enzyme of 8.70.
On the same counts, the results for `CC(C)Nc1cc(-c2ccc3cc(C#N)cnn23)ncc1C(=O)Nc1cncc(N)c1` [Example 490] are 6.66 and 8.15.
For `CC(=O)Nc1cncc(NC(=O)c2cnc(-c3ccc4cc(C#N)cnn34)cc2NC(C)C)c1` [Example 491, N-(5-acetamidopyridin-3-yl)-6-(3-cyanopyrrolo[1,2-b]pyridazin-7-yl)-4-(isopropylamino) nicotinamide], the pEC50 in the assay on TNFα is 6.66. The compound further gave a pIC50 against IRAK4 enzyme of 7.72.
Consider `CC(=O)NC12CC(Nc3cc(-c4ccc5cc(C#N)cnn45)ncc3C(=O)NC3(C#N)CC3)(C1)C2` [Example 492, 4-((3-acetamido-bicyclo[1.1.1]pentan-1-yl)amino)-N-(1-cyano-cyclopropyl)-6-(3-cyanopyrrolo[1,2-b]pyridazin-7-yl)nicotinamide], for which the pEC50 in the assay on TNFα is 7.00. Further, the pIC50 at IRAK4 enzyme is 9.00.
As to `CC(=O)Nc1nc(NC(=O)c2cnc(-c3ccc4cc(C#N)cnn34)cc2NC(C)C)cs1` [Example 493, N-(2-acetamidothiazol-4-yl)-6-(3-cyanopyrrolo[1,2-b]pyridazin-7-yl)-4-(isopropylamino)nicotinamide], in the assay with TNFα, the pEC50 is < 5.00. At IRAK4 enzyme, this compound showed a pIC50 of 7.92.
Taken in the same sequence, the figures for `CC(=O)NC12CC(Nc3cc(-c4ccc5cc(C#N)cnn45)ncc3C(=O)NC[C@@H](F)C(C)(C)F)(C1)C2` [Example 494, (R)-4-((3-acetamido-bicyclo[1.1.1]pentan-1-yl)amino)-6-(3-cyano-pyrrolo[1,2-b]pyridazin-7-yl)-N-(2,3-difluoro-3-methylbutyl)nicotinamide] were 7.36 and > 9.00.
Turning to `COC(C)(C)[C@H](F)CNC(=O)c1cnc(-c2ccc3cc(C#N)cnn23)cc1NC12CC(NC(C)=O)(C1)C2` [Example 495, (R)-4-((3-acetamidobicyclo[1.1.1]pentan-1-yl)amino)-6-(3-cyanopyrrolo[1,2-b]pyridazin-7-yl)-N-(2-fluoro-3-methoxy-3-methylbutyl)nicotinamide], the pEC50 with TNFα is 7.40. Also, the pIC50 against IRAK4 enzyme is > 9.00.
On to `CC(=O)NC12CC(Nc3cc(-c4ccc5cc(C#N)cnn45)ncc3C(=O)NCC#N)(C1)C2` [Example 496, 4-((3-acetamidobicyclo[1.1.1]pentan-1-yl)amino)-N-(cyanomethyl)-6-(3-cyanopyrrolo[1,2-b]pyridazin-7-yl)nicotinamide], for which the pEC50 in the assay on TNFα is 7.38. The pIC50 against IRAK4 enzyme was > 9.00.
On the same counts, the results for `[2H]C([2H])([2H])NC(=O)c1cnc(-c2ccc3cc(C#N)cnn23)cc1NC12CC(NC(C)=O)(C1)C2` [Example 497, 4-((3-acetamidobicyclo[1.1.1]pentan-1-yl)amino)-6-(3-cyanopyrrolo[1,2-b]pyridazin-7-yl)-N-(methyl-d3)nicotinamide] are 7.26 and 9.00.
Turning to `CNC(=O)c1cnc(-c2ccc3cc(C#N)cnn23)cc1NC12CC(NC(C)=O)(C1)C2` [Example 498, 4-((3-acetamidobicyclo[1.1.1]pentan-1-yl)amino)-6-(3-cyanopyrrolo[1,2-b]pyridazin-7-yl)-N-methyl-nicotinamide], in the assay with TNFα, the pEC50 is 7.37. The pIC50 against IRAK4 enzyme was 9.00.
For `CC(=O)NC12CCC(Nc3cc(-c4ccc5cc(C#N)cnn45)ncc3C(=O)NC[C@@H](F)C(C)(C)O)(CC1)C2` [Example 499, (R)-4-((4-acetamidobicyclo[2.2.1]heptan-1-yl)amino)-6-(3-cyanopyrrolo[1,2-b]pyridazin-7-yl)-N-(2-fluoro-3-hydroxy-3-methylbutyl)nicotinamide], in the assay with TNFα, the pEC50 is 7.70. Also, the pIC50 against IRAK4 enzyme was 9.00.
Turning to `COC(=O)NC12CCC(Nc3cc(-c4ccc5cc(C#N)cnn45)ncc3C(=O)NC[C@@H](F)C(C)(C)O)(CC1)C2` [Example 500, (R)-methyl (4-((2-(3-cyano-pyrrolo[1,2-b]pyridazin-7-yl)-5-((2-fluoro-3-hydroxy-3-methylbutyl)carbamoyl)pyridin-4-yl)amino)bicyclo[2.2.1]heptan-1-yl)carbamate], in the assay with TNFα, the pEC50 is 7.89. The pIC50 at IRAK4 enzyme is 9.00.
`CC(=O)O[C@@H]1CCC[C@H](Nc2cc(-c3ccc4cc(C#N)cnn34)ncc2C(=O)NC[C@@H](F)C(C)(C)O)C1` [Example 501, (1R,3S)-3-((2-(3-cyanopyrrolo[1,2-b]pyridazin-7-yl)-5-(((R)-2-fluoro-3-hydroxy-3-methylbutyl)carbamoyl)pyridin-4-yl)amino)cyclohexyl acetate]: the negative logarithm of the EC50 (pEC50) in the assay on TNFα was 7.20. On IRAK4 enzyme, the pIC50 was 8.70.
For `N#Cc1cnn2c(-c3cc(Nc4cccnc4)c(C(=O)N[C@H]4CC[C@H](NC(=O)C5CC5)CC4)cn3)ccc2c1` [Example 502, 6-(3-cyanopyrrolo[1,2-b]pyridazin-7-yl)-N-((1r,4r)-4-(cyclopropane-carboxamido)cyclohexyl)-4-(pyridin-3-ylamino) nicotinamide], in the assay on TNFα, the pEC50 was 7.03. The pIC50 against IRAK4 enzyme was 9.00.
For the compound `CC(C)(O)[C@H](F)CNC(=O)c1cnc(-c2ccc3cc(C#N)cnn23)cc1NC12CCC(F)(CC1)CC2` [Example 503, (R)-6-(3-cyanopyrrolo[1,2-b]pyridazin-7-yl)-N-(2-fluoro-3-hydroxy-3-methylbutyl)-4-((4-fluorobicyclo[2.2.2]octan-1-yl)amino)nicotinamide], the pEC50 in the assay on TNFα is 7.34. The compound also had a pIC50 on IRAK4 enzyme of 8.70.
In the case of `CC(C)(O)[C@H](F)CNC(=O)c1cnc(-c2ccc3cc(C#N)cnn23)cc1N[C@@]12CC[C@@H](C1)[C@@H](O)C2` [Example 504, 6-(3-cyanopyrrolo[1,2-b]pyridazin-7-yl)-N-((R)-2-fluoro-3-hydroxy-3-methylbutyl)-4-(((1S,3S,4S)-3-hydroxybicyclo[2.2.1]heptan-1-yl)amino) nicotinamide], in the assay on TNFα, the pEC50 is 7.85. For the same compound, the pIC50 against IRAK4 enzyme is > 9.00.
As for `C=CC(=O)N[C@H]1CC[C@H](NC(=O)c2cnc(-c3ccc4cc(C#N)cnn34)cc2NC2CCCC(O)C2)CC1` (stereo partly drawn) [Example 505, N-((1r,4S)-4-acrylamidocyclohexyl)-6-(3-cyanopyrrolo[1,2-b]pyridazin-7-yl)-4-(((1S,3R)-3-hydroxycyclohexyl)amino)nicotinamide], the pEC50 in the assay with TNFα is 6.86. At IRAK4 enzyme, this compound had a pIC50 of 9.00.
For `N#Cc1cnn2c(-c3cc(NC45CCC(O)(CC4)CC5)c(C(=O)NC4CCC(NC(=O)C5CC5)CC4)cn3)ccc2c1` (stereo not shown) [Example 506, 6-(3-cyanopyrrolo[1,2-b]pyridazin-7-yl)-N-((1r,4r)-4-(cyclopropane-carboxamido)cyclohexyl)-4-((4-hydroxybicyclo[2.2.2]octan-1-yl)amino) nicotinamide], the pEC50 with TNFα was 7.30. Moreover, at IRAK4 enzyme, the pIC50 is > 9.00.
`COC(=O)NC12CC(Nc3cc(-c4ccc5cc(C#N)cnn45)ncc3C(=O)NC[C@@H](F)C(C)(C)O)(C1)C2` [Example 507, (R)-methyl (3-((2-(3-cyanopyrrolo[1,2-b]pyridazin-7-yl)-5-((2-fluoro-3-hydroxy-3-methylbutyl)carbamoyl)pyridin-4-yl)amino)bicyclo[1.1.1]pentan-1-yl)carbamate]: the pEC50 in the assay with TNFα was 7.57. The negative logarithm of the IC50 (pIC50) at IRAK4 enzyme is > 9.00.
Regarding `CC(=O)NC12CC(Nc3cc(-c4ccc5cc(C#N)cnn45)ncc3C(=O)NC[C@@H](F)C(C)(C)O)(C1)C2` [Example 508, (R)-4-((3-acetamidobicyclo[1.1.1]pentan-1-yl)amino)-6-(3-cyanopyrrolo[1,2-b]pyridazin-7-yl)-N-(2-fluoro-3-hydroxy-3-methyl-butyl)nicotinamide], the negative logarithm of the EC50 (pEC50) in the assay on TNFα was 7.66. In addition, the pIC50 against IRAK4 enzyme is > 9.00.
Consider `CC(C)(O)[C@H](F)CNC(=O)c1cnc(-c2ccc3cc(C#N)cnn23)cc1NC1CCCC(F)C1` (stereo partly drawn) [Example 509, 6-(3-cyanopyrrolo[1,2-b]pyridazin-7-yl)-N-((R)-2-fluoro-3-hydroxy-3-methylbutyl)-4-(((1S)-3-fluorocyclohexyl)amino) nicotinamide], for which the pEC50 with TNFα is 7.18. The pIC50 on IRAK4 enzyme is > 9.00.
As for `CC1(O)CC2(CC(Nc3cc(-c4ccc5cc(C#N)cnn45)ncc3C(=O)NC[C@@H](F)C(C)(C)O)C2)C1` (stereo partly drawn) [Example 510, (R)-6-(3-cyanopyrrolo[1,2-b]pyridazin-7-yl)-N-(2-fluoro-3-hydroxy-3-methylbutyl)-4-((6-hydroxy-6-methylspiro[3.3]heptan-2-yl)amino)nicotinamide], the pEC50 in the assay on TNFα is 7.41. Further, the pIC50 against IRAK4 enzyme was > 9.00.
Turning to `CC(C)(O)[C@H](F)CNC(=O)c1cnc(-c2ccc3cc(C#N)cnn23)cc1NC1CC2(CC(O)C2)C1` (stereo partly drawn) [Example 511, (R)-6-(3-cyano-pyrrolo[1,2-b]pyridazin-7-yl)-N-(2-fluoro-3-hydroxy-3-methylbutyl)-4-((6-hydroxyspiro[3.3]heptan-2-yl)amino) nicotinamide], the pEC50 in the assay with TNFα was 7.59. Besides, on IRAK4 enzyme, the pIC50 was > 9.00.
